Reference: patent US20140039043A1, “PHARMACEUTICAL COMPOSITIONS COMPRISING CANNABIGEROL” (GW Pharma Limited, priority 2006, published 2014)

System: C57 B16J mice
Test: Tail suspension test (animal model of depression)
Assay type: in vivo
Settings: CBG dose greater than or equal to 40 mg/kg ip, tested 30 minutes after injection for six minutes
Protocol: A substantially pure extract of cannabigerol, purified from a cannabis plant extract, was tested for its ability to modify the behaviour of mice during an open field test and a tail suspension test (Steru et al., 1985, Psychopharmacology (Berl.) 85(3), 367-370). The CBG extract was compared to a known antidepressant imipramine.
The experiment used groups of 7-8 C57 B16J mice and these were tested with doses of 0, 5, 10, 20, 40, 60 and 80 mg/kg ip of CBG extract. The dose of imipramine that was used was the standard dose that is known to produce an anti-depressant effect of 30 mg/kg ip. One group of animals were administered a vehicle control.
The animals were subjected to a tail suspension test whereby a sound-attenuated chamber with a titanium bar mounted 15 cm from the floor was used. An opto-electronic sensor was mounted in a white plastic column and positioned from the mounting bar. An infra-red light transmitted from an LED onto the animal. If the animal moved, the amount of light collected by the phototransistor would increase or decrease depending on the size of the movement. […]
The mouse was suspended from a bar by the tip of its tail using adhesive tape so that the tip of their nose was 2 cm from the floor of the chamber. The total number of movements and total amount of time spent immobile were recorded.

Structure (SMILES): CCCCCc1cc(O)c(C/C=C(\C)CCC=C(C)C)c(O)c1 [CBG, cannabigerol]
- amount of struggling in the tail suspension test compared with vehicle control: significantly increased
